The values that follow are results of earlier work, collected in patent US20060210485A1, “Pharmaceutical formulations” (priority 2003, published 2006).

Structures can show the parent of a compound that is named as a salt.

The conditions of the data set: solid tablets with a lactose excipient; adducts postulated via the Maillard reaction.

In the case of `CNCCC(Oc1ccc(C(F)(F)F)cc1)c1ccccc1` (stereo not shown) [fluoxetine hydrochloride], the “chemical stability in presence of lactose” value is recorded as “undergoes degradation”.
